Data reported in EP1561465A2, “Methods of use of fluoroquinolone compounds against bacteria” (LG Life Sciences, Ltd., priority 1999, dated 2001).
Converted amounts (≈) assume the structure as drawn. Where two headings read alike, the source gives them in different places.

Key:
[1] = system: Moraxella catarrhalis; test: MIC by agar dilution (NCCLS), 411 isolates Buenos Aires 1998-99; type: cell-based
[2] = design: species or system healthy volunteers; settings: human, in vivo, po
[3] = system: Yersinia enterocolitica; test: MIC by agar dilution (NCCLS M7-A4), 288 enteropathogenic isolates, gemifloxacin and 15 other antimicrobials; type: cell-based; settings: Yersinia enterocolitica N= 22
[4] = system: S. aureus; test: Urinary bactericidal titers (UBT) and AUBTC of volunteers' urine; type: cell-based; settings: urine after gemifloxacin 320 mg or ofloxacin 400 mg
[5] = system: K. pneumoniae; test: as above; type: cell-based; settings: K. pneumoniae (16) Laboratory No. 595; urine after gemifloxacin 320 mg or ofloxacin 400 mg
[6] = system: E. faecalis; test: as above; type: cell-based; settings: urine after gemifloxacin 320 mg or ofloxacin 400 mg
[7] = system: Shigella spp.; test: MIC by agar dilution (NCCLS M7-A4), 288 enteropathogenic isolates, eight quinolones; type: cell-based; settings: Shigella spp. (n = 21)
[8] = system: P. aeruginosa; test: MIC and MBC by microdilution in Mueller-Hinton broth, uropathogens; type: cell-based
Experimental: (§1) MICs and MBCs were determined by a microdilution method with Mueller-Hinton broth. An inoculum of 1.3-9.4 x 10^5 colony forming units (CFU) per ml was used.
(§2) Strains included a reference strain E. coli ATCC 25922, susceptible to nalidixic acid (Nal-S) and the following clinical isolates obtained from complicated UTI patients: E. coli (resistant to nalidixic acid), K. pneumoniae, P. mirabilis , P. aeruginosa, […] (3 strains) and Enterococcus faecalis (2 strains).

[9] = system: P. mirabilis; test: as above; type: cell-based
Experimental: as §1, §2

[10] = system: E. coli; test: as above; type: cell-based
Experimental: as §1, §2

[11] = system: K. pneumoniae; test: as above; type: cell-based
Experimental: as §1, §2

[12] = system: E. faecalis; test: as above; type: cell-based; settings: Enterococcus faecalis
Experimental: as §1, §2

[13] = system: S. aureus; test: as above; type: cell-based; settings: Staphylococcus aureus
Experimental: as §1, §2

[14] = system: Campylobacter jejuni; test: MIC by agar dilution (NCCLS M7-A4), 5% sheep blood, microaerophilic 48 h; type: cell-based; settings: Campylobacter jejuni (n=91)
[15] = E. faecalis Laboratory No. 55, inoculum 6.0 CFU 10^5/ml
[16] = E. faecalis Laboratory No. 60, inoculum 7.0 CFU 10^5/ml
[17] = S. aureus Laboratory No. 83, inoculum 7.1 CFU 10^5/ml
[18] = S. aureus Laboratory No. 161, inoculum 9.4 CFU 10^5/ml
[19] = S. aureus Laboratory No. 636, inoculum 5.6 CFU 10^5/ml

SMILES: CC1COc2c(N3CCN(C)CC3)c(F)cc3c(=O)c(C(=O)O)cn1c23 (stereo not shown) [Ofloxacin, ofloxacin]
- MIC90 ([1]; Moraxella catarrhalis): 0.125 µg/mL (≈ 0.346 µM)
- MIC Range ([1]; Moraxella catarrhalis (n = 59)): 0.06 to 0.125 µg/mL
- tolerability [2]: well tolerated
- MIC ([3]; 24 h, read-out: MIC (mg/L) Range): 0.03 to 0.5 mg/L (≈ 0.083 to 1.38 µM)
- MIC ([3]; read-out: MIC (mg/L) 50%): 0.12 mg/L (≈ 0.332 µM)
- MIC ([3]; read-out: MIC (mg/L) 90%): 0.12 mg/L (≈ 0.332 µM)
- AUBTC (range) ([4]; S. aureus (13) Laboratory No. 636): 105 (0-279)
- AUBTC (range) ([4]; S. aureus (16) Laboratory No. 83): 387 (162-570)
- AUBTC (range) ([4]; S. aureus (16) Laboratory No. 161): 39 (0-78)
- AUBTC (range) [5]: 414 (180-636)
- AUBTC (range) ([6]; E. faecalis (13) Laboratory No. 55): 0 (0-54)
- AUBTC (range) ([6]; E. faecalis (16) Laboratory No. 60): 135 (90-204)
- % Susceptible [7]: 100%
- MIC50 [7]: 0.03 µg/mL (≈ 0.083 µM)
- MIC90 [7]: 0.06 µg/mL (≈ 0.166 µM)
- MIC Range [7]: ≤0.015 to 0.06 µg/mL
- MIC ([8]; P. aeruginosa Laboratory No. 568, inoculum 5.6 CFU 10^5/ml): 4 µg/mL (≈ 11.1 µM)
- MBC ([8]; Pseudomonas aeruginosa, P. aeruginosa Laboratory No. 568, inoculum 5.6 CFU 10^5/ml): 4 µg/mL (≈ 11.1 µM)
- MIC ([8]; Pseudomonas aeruginosa, P. aeruginosa clinical isolate, read-out: MIC): 4 µg/mL (≈ 11.1 µM)
- MIC ([9]; P. mirabilis Laboratory No. 414, inoculum 2.5 CFU 10^5/ml): 0.125 µg/mL (≈ 0.346 µM)
- MIC ([9]; Proteus mirabilis): 0.125 µg/mL (≈ 0.346 µM)
- MBC ([9]; Proteus mirabilis, P. mirabilis Laboratory No. 414, inoculum 2.5 CFU 10^5/ml): 0.125 µg/mL (≈ 0.346 µM)
- MIC ([10]; E. coli ATCC 25922, inoculum 1.3 CFU 10^5/ml): 0.06 µg/mL (≈ 0.166 µM)
- MIC ([10]; E. coli Laboratory No. 523, inoculum 3.4 CFU 10^5/ml): 0.5 µg/mL (≈ 1.38 µM)
- MIC ([10]; Escherichia coli, ATCC25922, E. coli ATCC 25922 (reference strain), read-out: MIC): 0.06 µg/mL (≈ 0.166 µM)
- MBC ([10]; Escherichia coli, ATCC25922, E. coli ATCC 25922, inoculum 1.3 CFU 10^5/ml): 0.06 µg/mL (≈ 0.166 µM)
- MBC ([10]; Escherichia coli, E. coli Laboratory No. 523, inoculum 3.4 CFU 10^5/ml): 0.5 µg/mL (≈ 1.38 µM)
- MIC ([10]; Escherichia coli, E. coli clinical isolate (0.06/0.5), read-out: MIC): 0.5 µg/mL (≈ 1.38 µM)
- MIC ([11]; K. pneumoniae Laboratory No. 595, inoculum 3.7 CFU 10^5/ml): 0.06 µg/mL (≈ 0.166 µM)
- MBC ([11]; Klebsiella pneumoniae, K. pneumoniae Laboratory No. 595, inoculum 3.7 CFU 10^5/ml): 0.06 µg/mL (≈ 0.166 µM)
- MIC ([11]; Klebsiella pneumoniae, K. pneumoniae clinical isolate, read-out: MIC): 0.06 µg/mL (≈ 0.166 µM)
- MBC [12, 15]: 128 µg/mL (≈ 354 µM)
- MIC [12, 15]: 32 µg/mL (≈ 88.6 µM)
- MBC [12, 16]: 2 µg/mL (≈ 5.53 µM)
- MIC [12, 16]: 2 µg/mL (≈ 5.53 µM)
- MIC ([12]; E. faecalis isolate (0.06/2)): 2 µg/mL (≈ 5.53 µM)
- MIC ([12]; E. faecalis isolate (0.5/32)): 32 µg/mL (≈ 88.6 µM)
- MBC [13, 17]: 0.25 µg/mL (≈ 0.692 µM)
- MIC [13, 17]: 0.25 µg/mL (≈ 0.692 µM)
- MBC [13, 18]: 4 µg/mL (≈ 11.1 µM)
- MIC [13, 18]: 4 µg/mL (≈ 11.1 µM)
- MBC [13, 19]: 32 µg/mL (≈ 88.6 µM)
- MIC [13, 19]: 32 µg/mL (≈ 88.6 µM)
- MIC ([13]; S. aureus isolate (0.008/0.25)): 0.25 µg/mL (≈ 0.692 µM)
- MIC ([13]; S. aureus isolate (0.25/4)): 4 µg/mL (≈ 11.1 µM)
- MIC ([13]; S. aureus isolate (2/32), quinolone-resistant): 32 µg/mL (≈ 88.6 µM)
- % Susceptible [14]: 31.86%
- MIC50 [14]: 16 µg/mL (≈ 44.3 µM)
- MIC90 [14]: 32 µg/mL (≈ 88.6 µM)
